PMC6143625, “A high throughput screen for next-generation leads targeting malaria parasite transmission” (Nature Communications, 2018)
Where two headings read alike, the source gives them in different places.

Tests used:
[1] = tested on: P. falciparum stage V male gametocytes (male gamete formation); experiment: P. falciparum dual gamete formation assay (Pf DGFA), male readout (exflagellation), 48 h carry-over format; format: cell-based, Plasmodium falciparum NF54; conditions: for IC50 / inhibition at 2 µM: Plasmodium falciparum; for activity in the Pf DGFA: freshly resynthesized compound; for inhibition at 2 µM: primary screen, single replicate
[2] = molecular target: T1, recombinant luciferase (Photinus pyralis) (Photinus pyralis, UniProt P08659); experiment: Recombinant luciferase inhibition assay; format: biochemical
T1 construct: purchased Promega E1701
T1 sequence (P08659 whole entry): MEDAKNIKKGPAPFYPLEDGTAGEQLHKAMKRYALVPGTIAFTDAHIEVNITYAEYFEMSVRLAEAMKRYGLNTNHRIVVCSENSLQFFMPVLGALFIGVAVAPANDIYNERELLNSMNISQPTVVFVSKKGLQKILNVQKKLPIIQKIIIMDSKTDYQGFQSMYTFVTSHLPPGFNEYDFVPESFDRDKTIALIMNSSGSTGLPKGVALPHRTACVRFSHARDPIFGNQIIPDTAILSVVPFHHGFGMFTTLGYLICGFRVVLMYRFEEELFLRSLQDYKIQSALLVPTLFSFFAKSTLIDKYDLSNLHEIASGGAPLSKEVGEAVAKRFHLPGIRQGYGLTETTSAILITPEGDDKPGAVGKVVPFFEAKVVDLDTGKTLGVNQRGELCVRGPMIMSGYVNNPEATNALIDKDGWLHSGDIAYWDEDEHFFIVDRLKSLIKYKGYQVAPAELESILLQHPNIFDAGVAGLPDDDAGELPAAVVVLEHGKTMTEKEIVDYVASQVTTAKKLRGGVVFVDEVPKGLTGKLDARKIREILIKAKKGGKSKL
Description: A counter-screen to the P. berghei liver stage assay was run against recombinant luciferase (Photinus pyralis) to measure the intrinsic bioluminescence inhibition from select compounds. Briefly, compounds were plated in 12-point serial dose response (50–2.82 × 10^−4 µM) in 1536-well opaque-bottom plates (789173-F, Greiner Bio-One). A 20 pM QuantiLum® Recombinant Luciferase (E1701, Promega) containing solution was made in screening media (DMEM, 11965–092, Invitrogen; 5% FBS, 35–011-CV, Corning; 5x Pen Strep Glutamine, 10378–016, Invitrogen), and 8 µl were added to each well. After 1 h incubation at room temperature, 2 µl of Bright-Glo™ (E2610, Promega) were dispensed per well, and bioluminescence was immediately measured using the EnVision microplate reader (PerkinElmer). DMSO (0.5%) and Luciferase Inhibitor-2 (9.8 µM) (119114, MilliporeSigma) served as negative and positive controls, respectively.

[3] = tested on: P. berghei-ANKA-GFP-Luc-SMCON sporozoites in HepG2-A16-CD81EGFP cells; experiment: P. berghei liver stage assay (luciferase sporozoite HepG2 invasion); format: cell-based; conditions: Plasmodium berghei
Description: Compound inhibition of P. berghei sporozoite liver infection was assessed in a high-throughput luciferase assay. 1536-well plates (789173-F, Greiner Bio-One) were pre-seeded with 5 µl HepG2-A16-CD81^EGFP cells grown in DMEM (11965–092, Invitrogen) containing 10% FBS (35–011-CV, Corning) and 1× Pen Strep Glutamine (10378–016, Invitrogen). Then, 50 nl of compound in DMSO was dispensed in 12-point serial dilution dose-response format (50 µM to 2.82 × 10^−4 µM), and incubated overnight.A. stephensi mosquitoes infected with P. berghei-ANKA-GFP-Luc-SMCON (Pb-Luc)[41] sporozoites bearing the antifolate-resistance-conferring Toxoplasma gondii dihydrofolate reductase-thymidylate synthase selectable marker, pyR2. After dissection, ~1000 sporozoites in 5 µl screening media (DMEM, 11965–092, Invitrogen; 5% FBS, 35–011-CV, Corning; 5x Pen Strep Glutamine, 10378–016, Invitrogen) were added per well and incubated for 48 h (37 °C, 5% CO2). Bioluminescence was measured using an EnVision microplate reader (Perkin Elmer), following the addition of 2 µl per well of Bright-Glo™ (Promega). Compound toxicity against HepG2 cells was determined in parallel by measuring cellular ATP levels reported by luciferase activity. Methods were similar to the P. berghei liver stage assay, except for the addition of CellTiter-Glo® (Promega) as a detection reagent. DMSO (0.5%) was used as a negative control in both assays, with Atovaquone (5 µM) and Puromycin (10 µM) acting as positive controls in the P. berghei and toxicity assays, respectively.

[4] = BPCA vs GHCDL stock of DDD599, adjusted for correct molecular weight, read-out: Pf DGFA male IC50
[5] = SAR, Fig. 6 and Fig. 7, read-out: Male IC50
[6] = 1h incubation, read-out: Recombinant luciferase assay IC50
[7] = 48h incubation, read-out: Pb Liver invasion assay IC50
[8] = 48 h, dose response retest of primary hits, 48 h incubation, read-out: Male IC50
[9] = 48h preincubation/carry-over, read-out: Pf DGFA Male IC50

SMILES | IC50 [2, 6] [µM] | IC50 [3, 7] [µM] | IC50 [1, 8] [µM] | IC50 [1, 9] [µM] | inhibition at 2 µM ([1]; 48 h incubation) [%] | further results
O=C(CCl)Nc1ccc(Br)cc1 [BPCA, N-(4-bromophenyl)-2-chloroacetamide] |  |  |  |  |  | IC50 [1, 4]: 1.46 µM; IC50 [1, 5]: 1.42 µM; Selectivity ([1]; parasite selectivity compared to Tox50 in HepG2 cells): 17
CC(=O)c1c(C)nn(CC(=O)Nc2ccc(Br)cc2)c1C [DDD01027599] | > 50 | 7.48 |  |  |  | IC50 [1, 4]: 1.38 µM; IC50 ([1]; compound resynthesised at GSK, read-out: IC50 against male gametocytes): > 50 µM; activity in the Pf DGFA [1]: inactive
O=S(=O)(NCC1(O)CCOc2ccccc21)c1ccccc1F (stereo not drawn) [DDD01028073] | > 50 | > 50 | 0.29 | 0.24 | 95 | IC50 [1, 5]: 0.34 µM
Cc1ccc(S(=O)(=O)NCC2(O)CCOc3ccccc32)s1 (stereo not drawn) [DDD01028074] | > 50 | > 50 | 0.22 | 0.49 | 101 | IC50 [1, 5]: 0.61 µM
O=S(=O)(NCC1(O)CCOc2ccccc21)c1ccc(Cl)s1 (stereo not drawn) [DDD01028075] | > 50 | > 50 | 0.45 | 1.48 | 53.1 | IC50 [1, 5]: 0.24 µM
O=S(=O)(NCC1(O)CCOc2ccccc21)c1ccccc1Br (stereo not drawn) [DDD01028076] | > 50 | > 50 | 0.16 | 0.72 | 98.3 | IC50 [1, 5]: 0.53 µM
COc1cccc(-n2ccc3nc(N4CCCC4)ncc3c2=O)c1 [DDD01034957] | 6.7 |  |  | > 12.5 |  | 
O=S(=O)(NCC1(O)CCOc2ccccc21)c1cccs1 (stereo not drawn) [DDD01035879] | > 50 | > 50 | 1.1 | 1.65 | 83.8 | IC50 [1, 5]: 0.28 µM
O=S(=O)(NCC1(O)CCOc2ccccc21)c1ccc(Br)s1 (stereo not drawn) [DDD01035881] | > 50 |  | 0.54 | 0.7 | 102 | IC50 [1, 5]: 0.19 µM
Cc1cccc(NC(=O)c2cccc(OCc3nnnn3C)c2)n1 [DDD01038630] | > 50 | > 50 |  | > 12.5 |  | 
CC(c1ccco1)N(C(=O)CNc1ccc(C#N)cc1)C1CC1 (stereo not drawn) [DDD01062645] | > 50 |  | 0.43 | 2.07 | 96 | 
Cc1ccc(CN(c2cc(C)nc3nc(C(F)(F)F)nn23)C2CC2)cc1 [DDD01063654] | > 50 | 15.3 |  | > 12.5 |  | 
Cc1cc(C)c(CNCC(O)c2ccc(F)c(F)c2)c(C)c1.Cl (stereo not drawn) [DDD01065539] |  | 17.2 |  | > 12.5 |  | IC50 [2]: > 50 µM
CC(NCC1CCN(CCO)CC1)c1ccc(OC(F)(F)F)cc1 (stereo not drawn) [DDD01073716] | > 50 | 15.5 | 7.09 | 1.43 | 43.9 | 
CN(Cc1cccc(F)c1)C(=O)CS(=O)(=O)Cc1c(Cl)cccc1Cl [DDD01077188] | > 50 | 23.1 |  | > 12.5 |  | 
CN1CCC(NCC(O)c2cccc(OCc3ccccc3)c2)CC1 (stereo not drawn) [DDD01079164] | > 50 | 16.5 | 5.75 | 0.92 | 45.7 | 
CNc1cc(C)nc(NC2CCCN(C3Cc4ccccc4C3)C2)n1 (stereo not drawn) [DDD01243506] | > 50 |  |  | > 12.5 |  | IC50 ([2]; read-out: Recombinant luciferase IC50): ≥ 50 µM; IC50 ([3]; read-out: Pb liver IC50): 0.52 µM
OC1(CN2CCC(Oc3cccc(C(F)(F)F)c3)CC2)CCNC1 (stereo not drawn) [DDD01245291] | > 50 | 6.06 | 3.05 | 1.11 | 48.3 | 
CC(c1cccs1)N(C)Cc1cnc(-c2ccccn2)nc1 (stereo not drawn) [DDD01246628] | 4.28 | 13.3 | 2.54 | 1.17 | 67.8 | 
CC(C)CN1CCn2nc(CNc3ncnc4[nH]ccc34)cc2C1 [DDD01249504] | > 50 | > 50 | 2.27 | 1.66 | 52.1 | IC50 ([1]; 240 h, resynthesized, aged 10 days at room temperature in the light, read-out: IC50 in Pf DGFA after aging): 0.381 µM; activity in the Pf DGFA [1]: inactive; activity in Pf DGFA after aging ([1]; resynthesized, incubated in the dark at 37 °C): inactive; activity in Pf DGFA ([1]; resynthesized, untreated compound): inactive
CCCn1nccc1C(=O)N1CCN(C2CCc3ccccc3C2)CC1 (stereo not drawn) [DDD01251134] | > 50 | 20.7 |  | > 12.5 |  | 
Cc1nn(C)c(Oc2ccc(Cl)cc2)c1CN1CCC(CN)C1 (stereo not drawn) [DDD01254274] | > 50 | > 50 | 4.08 | 2.25 | 53.1 | 
CCc1ccc(C2c3nc[nH]c3CCN2Cc2nccn2CC)nc1 (stereo not drawn) [DDD01254473] | > 50 | > 50 | > 10 | 3.96 | < 30 | 
CCOc1ccc2ccccc2c1CNCC1CCNCC1.Cl.Cl [DDD01255740] | > 50 | 13.2 | 4.4 | 0.41 | 35.6 | 
Cc1ccc(-c2cc(C(=O)NCCC3=CCCCC3)[nH]n2)o1 [DDD01255968] | 17.9 | 17.6 | 1.55 | 1.82 | 37.5 | IC50 ([1]; resynthesized, incubated at room temperature, read-out: IC50 in Pf DGFA after aging): 15.9 µM; IC50 ([1]; resynthesized, prolonged incubation at 37 °C, read-out: IC50 in Pf DGFA after aging): 5.85 µM; activity in the Pf DGFA [1]: inactive
CCn1ncc(Br)c1CN(C)S(=O)(=O)c1ccc(C)cc1 [DDD01259521] | > 50 | 8.64 |  | > 12.5 |  | 
c1cnnc(N2CCCC2CNc2ncnc3sccc23)c1 (stereo not drawn) [DDD01299704] | > 50 | 16.4 |  | > 12.5 |  | 
